# Data taken from US20220202939A1, “PREPARATION FOR IMPROVING ACTIVITY AND/OR THERMAL STABILITY OF SUPEROXIDE DISMUTASE, AND APPLICATION THEREOF” (CHINA AGRICULTURAL UNIVERSITY, priority 2020, published 2022).
# Tested on: superoxide dismutase (SOD)
# Assay: Influence of small-molecule substances on SOD enzyme activity and thermal stability at 80° C.
# Format: biochemical
# Conditions: experimental group 1: 100 μL SOD solution (1×10^−4 mol/L) + 100 μL substance solution (1×10^−3 mol/L); water bath 80° C., 4 hours, enzyme activity every 20 minutes; vs SOD blank control; FIG. 1
# Method: SOD solution: Mr(SOD)=37.8 kDa, 37.8 mg of SOD was weighed and dissolved in 10 mL of phosphate buffer to obtain a stock solution of CSOD=1×10^−4 mol/L.
# Experimental group 1: 100 μL of the SOD solution was taken out and added to each of […] 10 mL centrifuge tubes, and then 100 μL of the solution of each of the vitamin C, the vitamin p, the catechin, the quercetin, the myricetin, the kaempherol, the ellagic acid, and the ferulic acid was added to each of the […] centrifuge tubes. Another 100 μL of the SOD solution was taken out as blank control. The centrifuge tubes and the blank control were placed in a water bath at 80° C., incubated for 4 hours, and detected for enzyme activity every 20 minutes. […]
Compound,activity of the SOD,thermal stability of the SOD
"Cc1ncc(C[n+]2csc(CCO)c2C)c(N)n1 [Vb1, vitamin B1, reference compound]",fails to improve the activity and thermal stability of SOD enzymes,fails to improve the activity and thermal stability of SOD enzymes
O=c1oc2c(O)c(O)cc3c(=O)oc4c(O)c(O)cc1c4c23 [ellagic acid],improve the activity of the SOD,significantly improve the thermal stability of the SOD
COc1cc(/C=C/C(=O)O)ccc1O [ferulic acid],improve the activity of the SOD,significantly improve the thermal stability of the SOD
O=c1c(O)c(-c2ccc(O)cc2)oc2cc(O)cc(O)c12 [kaempherol],improve the activity of the SOD,significantly improve the thermal stability of the SOD
O=c1c(O)c(-c2cc(O)c(O)c(O)c2)oc2cc(O)cc(O)c12 [myricetin],improve the activity of the SOD,significantly improve the thermal stability of the SOD
O=c1c(O)c(-c2ccc(O)c(O)c2)oc2cc(O)cc(O)c12 [quercetin],improve the activity of the SOD,significantly improve the thermal stability of the SOD
O=C1O[C@H]([C@@H](O)CO)C(O)=C1O [vitamin C],improve the activity of the SOD,significantly improve the thermal stability of the SOD
catechin,improve the activity of the SOD,significantly improve the thermal stability of the SOD
vitamin P,improve the activity of the SOD,significantly improve the thermal stability of the SOD
